What was measured:
[1] = test system: PC3/SFN cells xenografted tumours; test: Urine hCG in nude mice bearing PC3/SFN-hCG(myc)-Amp reporter xenografts; format: in vivo, congenitally athymic nude mice; settings: for increase of normalised urine hCG levels: 48 hours post-dosing vs pre-dose, normalised against urine creatinine, relative to tumour volume; for hCG expression in individual mice compared to vehicle controls: single dose ip (etoposide 40 mg/kg, camptothecin 30 mg/kg), urine 48 hours after drug administration
Method: PC3 cells stably transfected with the SFN-hCG(myc)-Amp reporter construct were allowed to grow as solid subcutaneous tumours in congenitally athymic nude mice. The mice were then treated with anticancer drugs that act by inducing G2/M arrest. The drugs chosen for this exemplification were etoposide and camptothecin [12]. […] Wild-type and engineered PC3 tumour cell lines were cultured in RPMI medium supplemented with 10%-15% heat inactivated foetal calf serum, 2 mM L-glutamine, penicillin (50 IU/ml), streptomycin (50 μg/ml). Culture medium for PC3/SFN cells also contained G418 (200 μg/ml). Cultures were incubated in a humidified incubator at 37° C., 5% CO2. Cells were harvested, pooled, centrifuged, and re-suspended in cold medium. This was mixed with an equal volume of cold Matrigel, so that the tumour cell injection solution was a 50:50 mixture of tumour cells/medium and Matrigel for each cell line. Wild type or transfected PC3 cells were injected at 2.5×10^6 per animal. All cell lines were injected in a volume of 100 μl in the right hand flank only. The study consisted of 4 groups in total, each containing 4 animals. One group of mice was implanted with wild type PC3 cells and the remaining 3 groups with engineered cells. Tumour growth was measured twice-weekly following cell implantation until tumours reached 2-5 mm in diameter. Tumour volume (V) was calculated using the formula: V= 4/3π((d1+d2)/4)^3, where d=mean diameter (n=2) Treatment began 5 weeks after tumour implantation. Wild type PC3-xenografted mice remained untreated; all other mice were administered vehicle only (DMSO/saline) or test substances. Single administrations of Camptothecin (30 mg/kg) and Etoposide (40 mg/kg) were administered ip at 10 ml/kg. Additionally, Etoposide (25 mg/kg) was administered to a single group of mice over three consecutive days (ip; 10 ml/kg). Urine samples were harvested before, during and after drug administration. Animals were sacrificed 48 hours after treatment. Urine was analysed for hCG and values normalised against urine creatinine levels.

[2] = test system: PC3 cells stably engineered to contain the SFN-hCG(myc)-Amp construct; test: hCG induction in PC3 cells stably engineered to contain the SFN-hCG(myc)-Amp construct (ELISA of medium); format: cell-based, human; settings: stable PC3 cell line, 24 hours
Method: To generate a stable cell line, transfection was carried out as above. After 24 hours the cells were trypsinised and transferred to 10 cm tissue culture dishes (one well of a six well plate per 10 cm dish). The cells were allowed to grow on these dishes for 7 days prior to selection. After this time, G418 (20 ng/ml in cell culture medium) was added and the dishes maintained until colonies became visible (approximately one week). Individual colonies were picked using cloning discs soaked in typsin and transferred to individual wells of a 24 well plate. The colonies were then expanded to 6 well plates then T25 flasks and grown up until sufficient cells were present for use in in vitro inductions and xenograft experiments. Following the generation of a stable cell line containing the SFN-hCG(myc)-Amp reporter construct, the cells were further tested using etoposide. The cells were plated out on 6 well plates and allowed to adhere overnight. The next day they were treated with etoposide (50 or 400 μM) or vehicle (dimethyl sulphoxide). After 24 hours in the presence or absence of etoposide, samples of the medium were taken and assayed for hCG by enzyme-linked immunosorbent assay as above.

[3] = test system: PC3 cells containing the SFN-hCG(myc)-Amp reporter construct; test: hCG induction in PC3 cells transiently transfected with SFN-hCG(myc)-Amp reporter construct (ELISA of medium); format: cell-based, human; settings: 50 μM etoposide, 24 hours, vs untreated
Method: The SFN-hCG(myc)-Amp reporter construct was transfected into PC3 cells on 6-well tissue culture plates using FuGene reagent (Roche, Lewes, East Sussex). Construct DNA (equivalent to 1 μg/well) was added to FuGene reagent (3 μl/well) and made up to 100 μl/well with serum free medium. The medium in which the cells were growing was aspirated off and replaced with 100 μl of the above mixture per well. For transient transfections, the cells were used for experiments 24 hours after the addition of the construct.

Row | SMILES | hCG levels at 24 and 48 hours following a third dose ([1]; 3 consecutive doses of 25 mg/kg ip, 24 and 48 hours after third dose) | normalised hCG expression following the first dose ([1]; 3 consecutive doses of 25 mg/kg ip, after first dose) | normalised hCG expression following a second dose ([1]; 3 consecutive doses of 25 mg/kg ip, after second dose) | anti-tumour effect against the PC3/SFN cells ([1]; 3 consecutive doses of 25 mg/kg ip, inferred from the drop in urine hCG) | increase of normalised urine hCG levels ([1]; single dose 40 mg/kg ip) [fold] | hCG expression in individual mice compared to vehicle controls [1] | amount of hCG secreted at higher concentration ([2]; 400 μM vs 50 μM etoposide) | amount of hCG secreted into the surrounding medium ([2]; etoposide 50 or 400 μM, vs vehicle (dimethyl sulphoxide)) | amount of hCG secreted into the surrounding medium [3] | increase of normalised urine hCG levels ([1]; single dose 30 mg/kg ip) [fold]
1 | COc1cc([C@@H]2c3cc4c(cc3[C@@H](O[C@@H]3O[C@@H]5CO[C@@H](C)O[C@H]5[C@H](O)[C@H]3O)[C@H]3COC(=O)[C@H]23)OCO4)cc(OC)c1O [etoposide] | dropped to control levels | sharp increase | remained at this level | exhibited an anti-tumour effect | 4.29 | significantly increased | increased | increased | increased | 
2 | CC[C@@]1(O)C(=O)OCc2c1cc1n(c2=O)Cc2cc3ccccc3nc2-1 [camptothecin] |  |  |  |  |  | significantly increased |  |  |  | 5.29

— patent US20060277615A1, “Method of determining xenograft responses” (priority 2003, published 2006)
